In paper PMC8213057, “Targeting ALK2: An Open Science Approach to Developing Therapeutics for the Treatment of Diffuse Intrinsic Pontine Glioma” (Journal of Medicinal Chemistry, 2020):

What was measured:
WNK2 = WNK2 (Homo sapiens, UniProt Q9Y3S1); settings: 1 μM; Run 1, Run 2
DCAMKL1 = target: T1, DCAMKL1 (Homo sapiens, UniProt O15075); settings: 1 μM; Run 1, Run 2
T1 sequence (O15075 1-740): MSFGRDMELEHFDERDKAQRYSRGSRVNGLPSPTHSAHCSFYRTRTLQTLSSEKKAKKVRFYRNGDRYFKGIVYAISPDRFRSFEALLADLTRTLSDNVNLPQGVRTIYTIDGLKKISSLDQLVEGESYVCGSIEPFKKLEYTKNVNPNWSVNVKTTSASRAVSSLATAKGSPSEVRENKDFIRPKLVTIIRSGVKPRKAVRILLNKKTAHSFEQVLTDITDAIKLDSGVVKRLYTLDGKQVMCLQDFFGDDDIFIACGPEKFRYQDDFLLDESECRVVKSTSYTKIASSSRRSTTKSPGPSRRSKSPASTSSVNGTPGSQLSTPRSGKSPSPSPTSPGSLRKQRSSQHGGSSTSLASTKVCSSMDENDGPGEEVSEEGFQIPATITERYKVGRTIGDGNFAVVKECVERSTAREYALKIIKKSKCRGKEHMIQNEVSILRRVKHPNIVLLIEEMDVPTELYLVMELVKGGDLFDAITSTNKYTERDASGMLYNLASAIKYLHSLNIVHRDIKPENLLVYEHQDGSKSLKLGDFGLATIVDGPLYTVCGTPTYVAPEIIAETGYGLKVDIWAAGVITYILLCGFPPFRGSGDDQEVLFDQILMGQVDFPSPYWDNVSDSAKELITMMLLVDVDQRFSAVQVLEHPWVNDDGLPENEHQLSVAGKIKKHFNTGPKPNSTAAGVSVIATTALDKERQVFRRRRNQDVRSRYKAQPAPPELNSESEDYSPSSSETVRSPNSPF

NEK11 = target: T2, NEK11 (Homo sapiens, UniProt Q8NG66); settings: 1 μM; Run 1, Run 2
T2 sequence (Q8NG66 1-645): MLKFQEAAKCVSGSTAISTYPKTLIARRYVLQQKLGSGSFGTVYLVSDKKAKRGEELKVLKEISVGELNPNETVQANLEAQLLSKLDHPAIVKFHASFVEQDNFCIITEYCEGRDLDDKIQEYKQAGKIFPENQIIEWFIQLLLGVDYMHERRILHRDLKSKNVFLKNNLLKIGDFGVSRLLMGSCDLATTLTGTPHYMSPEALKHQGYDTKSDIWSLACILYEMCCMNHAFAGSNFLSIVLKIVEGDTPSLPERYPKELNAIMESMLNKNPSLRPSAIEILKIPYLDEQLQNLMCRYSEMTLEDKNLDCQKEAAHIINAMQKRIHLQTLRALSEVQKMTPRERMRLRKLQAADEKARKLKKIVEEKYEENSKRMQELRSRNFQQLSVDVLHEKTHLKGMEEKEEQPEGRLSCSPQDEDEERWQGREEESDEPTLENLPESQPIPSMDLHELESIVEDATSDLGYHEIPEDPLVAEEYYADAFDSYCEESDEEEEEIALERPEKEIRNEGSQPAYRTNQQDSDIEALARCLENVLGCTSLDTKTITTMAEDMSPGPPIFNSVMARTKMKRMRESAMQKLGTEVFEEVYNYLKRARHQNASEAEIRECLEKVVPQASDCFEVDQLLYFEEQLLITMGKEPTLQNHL

LCK = LCK (Homo sapiens, UniProt P06239); test: biochemical; settings: read-out: % enzyme activity, 1 μM; Run 1, Run 2
Chain of LCK (P06239 whole entry): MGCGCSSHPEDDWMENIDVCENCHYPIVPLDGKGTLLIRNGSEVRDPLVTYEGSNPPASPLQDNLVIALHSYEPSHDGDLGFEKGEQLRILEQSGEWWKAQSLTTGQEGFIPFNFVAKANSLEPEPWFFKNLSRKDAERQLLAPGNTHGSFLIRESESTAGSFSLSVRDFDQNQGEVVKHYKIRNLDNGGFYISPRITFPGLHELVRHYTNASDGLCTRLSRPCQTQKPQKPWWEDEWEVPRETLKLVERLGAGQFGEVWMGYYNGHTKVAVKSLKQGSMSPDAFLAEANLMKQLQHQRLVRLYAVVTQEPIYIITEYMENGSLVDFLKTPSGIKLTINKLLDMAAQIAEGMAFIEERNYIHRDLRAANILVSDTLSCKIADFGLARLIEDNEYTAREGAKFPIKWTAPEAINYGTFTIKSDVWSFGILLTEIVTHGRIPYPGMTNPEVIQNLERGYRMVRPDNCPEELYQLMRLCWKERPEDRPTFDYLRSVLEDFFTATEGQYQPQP

RIPK5 = target: T3, RIPK5 (Homo sapiens, UniProt Q6XUX3); settings: 1 μM; Run 1, Run 2
T3 sequence (Q6XUX3 1-929): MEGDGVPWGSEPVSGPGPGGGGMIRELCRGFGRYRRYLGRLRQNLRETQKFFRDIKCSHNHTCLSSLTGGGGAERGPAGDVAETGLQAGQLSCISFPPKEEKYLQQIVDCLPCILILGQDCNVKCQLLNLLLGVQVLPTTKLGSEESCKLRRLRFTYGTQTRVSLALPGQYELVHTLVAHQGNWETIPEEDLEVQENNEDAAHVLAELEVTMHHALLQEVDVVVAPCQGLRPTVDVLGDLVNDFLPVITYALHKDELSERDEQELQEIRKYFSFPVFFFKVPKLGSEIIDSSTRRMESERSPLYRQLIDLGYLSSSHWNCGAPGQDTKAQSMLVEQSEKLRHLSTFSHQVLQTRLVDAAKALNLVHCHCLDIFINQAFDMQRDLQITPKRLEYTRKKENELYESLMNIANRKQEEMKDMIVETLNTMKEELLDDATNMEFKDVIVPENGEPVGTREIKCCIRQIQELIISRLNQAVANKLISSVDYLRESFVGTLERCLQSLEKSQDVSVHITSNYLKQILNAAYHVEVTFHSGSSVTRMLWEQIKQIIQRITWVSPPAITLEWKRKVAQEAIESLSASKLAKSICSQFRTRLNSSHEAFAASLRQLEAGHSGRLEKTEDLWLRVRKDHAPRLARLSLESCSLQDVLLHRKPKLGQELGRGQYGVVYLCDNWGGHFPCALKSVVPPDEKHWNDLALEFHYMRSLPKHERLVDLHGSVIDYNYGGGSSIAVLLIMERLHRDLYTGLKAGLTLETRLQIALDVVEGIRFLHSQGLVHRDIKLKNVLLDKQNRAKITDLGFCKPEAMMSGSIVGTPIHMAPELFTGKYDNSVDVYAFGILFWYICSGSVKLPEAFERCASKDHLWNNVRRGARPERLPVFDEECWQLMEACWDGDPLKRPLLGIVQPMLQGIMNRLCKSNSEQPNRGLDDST

Chain of WNK2 (Q9Y3S1 whole entry, species assumed): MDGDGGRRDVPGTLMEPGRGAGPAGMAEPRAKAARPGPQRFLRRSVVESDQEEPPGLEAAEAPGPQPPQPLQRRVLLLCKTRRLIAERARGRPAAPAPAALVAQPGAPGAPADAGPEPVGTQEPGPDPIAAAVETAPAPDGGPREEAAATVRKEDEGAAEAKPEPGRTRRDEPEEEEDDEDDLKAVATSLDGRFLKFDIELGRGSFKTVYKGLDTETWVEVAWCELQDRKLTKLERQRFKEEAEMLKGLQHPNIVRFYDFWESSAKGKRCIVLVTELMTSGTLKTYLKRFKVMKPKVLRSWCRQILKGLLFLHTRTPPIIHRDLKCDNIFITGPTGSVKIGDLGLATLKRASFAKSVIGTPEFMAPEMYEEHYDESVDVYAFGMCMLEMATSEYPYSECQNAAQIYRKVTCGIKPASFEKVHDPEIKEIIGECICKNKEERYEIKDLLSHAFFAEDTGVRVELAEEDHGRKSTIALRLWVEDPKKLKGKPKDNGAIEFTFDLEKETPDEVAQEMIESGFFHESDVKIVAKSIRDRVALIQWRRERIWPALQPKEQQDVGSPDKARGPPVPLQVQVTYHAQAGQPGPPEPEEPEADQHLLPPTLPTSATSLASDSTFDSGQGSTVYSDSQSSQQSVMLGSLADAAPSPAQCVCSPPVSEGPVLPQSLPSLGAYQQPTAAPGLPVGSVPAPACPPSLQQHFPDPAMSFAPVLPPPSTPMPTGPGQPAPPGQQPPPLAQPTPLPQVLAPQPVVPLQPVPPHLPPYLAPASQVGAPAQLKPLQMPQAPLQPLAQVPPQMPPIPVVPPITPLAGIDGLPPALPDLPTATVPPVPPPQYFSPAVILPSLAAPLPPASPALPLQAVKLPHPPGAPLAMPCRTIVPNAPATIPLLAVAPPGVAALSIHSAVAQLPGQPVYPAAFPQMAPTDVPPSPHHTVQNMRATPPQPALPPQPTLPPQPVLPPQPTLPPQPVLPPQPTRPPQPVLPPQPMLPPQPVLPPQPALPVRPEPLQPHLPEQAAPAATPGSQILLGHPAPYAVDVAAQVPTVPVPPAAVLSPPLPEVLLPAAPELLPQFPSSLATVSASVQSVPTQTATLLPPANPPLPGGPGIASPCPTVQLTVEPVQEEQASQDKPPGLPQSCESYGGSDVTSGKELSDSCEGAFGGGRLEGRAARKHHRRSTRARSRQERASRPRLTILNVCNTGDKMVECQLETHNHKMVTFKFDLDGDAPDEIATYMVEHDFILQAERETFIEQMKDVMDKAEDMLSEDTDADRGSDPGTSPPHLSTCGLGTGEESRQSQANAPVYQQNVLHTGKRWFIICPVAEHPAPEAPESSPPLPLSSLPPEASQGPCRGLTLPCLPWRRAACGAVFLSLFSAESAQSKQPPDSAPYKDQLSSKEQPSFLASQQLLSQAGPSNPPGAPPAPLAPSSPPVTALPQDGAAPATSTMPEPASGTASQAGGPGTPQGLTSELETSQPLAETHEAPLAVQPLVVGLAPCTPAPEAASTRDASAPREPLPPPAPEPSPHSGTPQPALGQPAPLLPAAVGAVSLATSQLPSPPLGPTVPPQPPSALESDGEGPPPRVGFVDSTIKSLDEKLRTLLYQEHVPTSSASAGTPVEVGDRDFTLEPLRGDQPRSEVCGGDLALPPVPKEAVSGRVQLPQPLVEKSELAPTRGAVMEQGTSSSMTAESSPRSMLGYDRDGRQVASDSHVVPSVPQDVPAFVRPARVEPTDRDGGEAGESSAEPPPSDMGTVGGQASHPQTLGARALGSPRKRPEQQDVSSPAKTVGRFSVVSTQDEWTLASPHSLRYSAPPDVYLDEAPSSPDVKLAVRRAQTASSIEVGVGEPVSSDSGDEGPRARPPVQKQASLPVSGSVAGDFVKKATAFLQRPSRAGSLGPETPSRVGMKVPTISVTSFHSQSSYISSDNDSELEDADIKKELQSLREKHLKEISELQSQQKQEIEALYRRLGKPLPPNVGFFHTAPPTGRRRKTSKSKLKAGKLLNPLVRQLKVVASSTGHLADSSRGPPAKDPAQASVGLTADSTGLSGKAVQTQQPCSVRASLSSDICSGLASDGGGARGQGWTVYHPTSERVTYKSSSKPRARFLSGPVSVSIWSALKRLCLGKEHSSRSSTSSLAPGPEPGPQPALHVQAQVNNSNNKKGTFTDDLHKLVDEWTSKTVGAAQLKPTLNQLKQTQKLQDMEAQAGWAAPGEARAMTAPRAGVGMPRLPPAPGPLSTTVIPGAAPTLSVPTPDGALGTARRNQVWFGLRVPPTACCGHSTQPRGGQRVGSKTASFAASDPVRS

Row | SMILES | % enzyme activity (WNK2) | % enzyme activity (DCAMKL1) | % enzyme activity (NEK11) | remaining activity at 1 µM (LCK) | % enzyme activity (RIPK5)
1 | COc1cc(-c2cncc(-c3ccc(N4C[C@@H](C)N(C)[C@@H](C)C4)cc3)c2C)cc(F)c1C(N)=O [Compound 26c, 2-Fluoro-6-methoxy-4-(4-methyl-5-(4-((3R,5S)-3,4,5-trimethylpiperazin-1-yl)phenyl)pyridin-3-yl)benzamide] | 93.64% | 85.85% | 87.79% | 101% | 86.47%
2 | COc1cc(-c2cncc(-c3ccc(N4CCN(C)CC4)cc3)c2C)cc(F)c1C(N)=O [Compound 26a, 2-Fluoro-6-methoxy-4-(4-methyl-5-(4-(4-methylpiperazin-1-yl)phenyl)pyridin-3-yl)benzamide] | 95.09% | 81.46% | 85.69% | 93.2% | 82.21%
